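All cell lines were grown in 96-well plates and treated with compound for 48 hours. TGI: total growth inhibition.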
Tests used:
Experiment in all cases: growth of human tumour cells (NCI), 48 h
[1] = system: 786-0 renal
[2] = system: A498 renal
[3] = system: A549 NSCLC
[4] = system: ACHN renal
[5] = system: COLO 205 colon
[6] = system: DLD-1 colon
[7] = system: DMS 114 small cell lung
[8] = system: DMS 273 small cell lung
[9] = system: HCC-2998 colon
[10] = system: HCT-116 colon
[11] = system: HCT-15 colon
[12] = system: HOP-18 NSCLC
[13] = system: HOP-62 NSCLC
[14] = system: HOP-92 NSCLC
[15] = system: HT29 colon
[16] = system: IGROV1 ovarian
[17] = system: KM12 colon
[18] = system: LXFL 529 NSCLC
[19] = system: M14 melanoma
[20] = system: M19-MEL melanoma
[21] = system: MALME-3M melanoma
[22] = system: MOLT-4 leukemia
[23] = system: NCI-H226 lung
[24] = system: NCI-H23 lung
[25] = system: NCI-H460 lung
[26] = system: NCI-H522 lung
[27] = system: OVCAR-3 ovarian
[28] = system: OVCAR-4 ovarian
[29] = system: OVCAR-5 ovarian
[30] = system: OVCAR-8 ovarian
[31] = system: RPMI-8226 leukemia
[32] = system: RXF-631 renal
[33] = system: SF-268 CNS
[34] = system: SF-295 CNS
[35] = system: SF-539 CNS
[36] = system: SK-MEL-2 melanoma
[37] = system: SK-MEL-28 melanoma
[38] = system: SK-MEL-5 melanoma
[39] = system: SK-OV-3 ovarian
[40] = system: SN12C renal
[41] = system: SNB-75 CNS
[42] = system: SNB-78 CNS
[43] = system: SR leukemia
[44] = system: SW-620 colon
[45] = system: TK-10 renal
[46] = system: U251 CNS
[47] = system: UACC-257 melanoma
[48] = system: UO-31 renal
[49] = system: CAKI-1 renal
[50] = system: CCRF-CEM leukemia
[51] = system: EKVX NSCLC
[52] = system: HL-60(TB) leukemia
[53] = system: K-562 leukemia
[54] = system: KM20L2 colon
[55] = system: LOX IMVI melanoma
[56] = system: RXF 393 renal
[57] = system: SNB-19 CNS
[58] = system: UACC-62 melanoma
[59] = system: XF 498 CNS

Measured: TGI

CC1(c2ccccc2)CC(c2cccc([N+](=O)[O-])c2)=NO1 (stereo not given)
> 100 µM: [1] | [2] | [3] | [4] | [5] | [6] | [7] | [8] | [9] | [10] | [11] | [12] | [13] | [14] | [15] | [16] | [17] | [18] | [19] | [20] | [21] | [22] | [23] | [24] | [25] | [26] | [27] | [28] | [29] | [30] | [31] | [32] | [33] | [34] | [35] | [36] | [37] | [38] | [39] | [40] | [41] | [42] | [43] | [44] | [45] | [46] | [47] | [48]

Cc1cc(C)nc(NS(=O)(=O)c2ccc(Nc3c4ccc(Cl)cc4nc4c(C(=O)NCCN(C)C)cccc34)cc2)n1
> 100 µM: [1] | [2] | [3] | [4] | [49] | [50] | [5] | [6] | [7] | [8] | [51] | [9] | [10] | [11] | [52] | [13] | [14] | [15] | [16] | [53] | [17] | [54] | [55] | [18] | [19] | [20] | [21] | [22] | [23] | [24] | [25] | [26] | [27] | [28] | [29] | [30] | [31] | [56] | [32] | [33] | [34] | [35] | [37] | [38] | [39] | [40] | [57] | [41] | [42] | [43] | [44] | [45] | [46] | [47] | [58] | [48] | [59]

Reference: PubChem BioAssay (NCI)
